The source made the active and inactive calls.
What was measured:
Format in all cases: functional, cell-based
MOLT-4 [1] = test: Tested for antiproliferative activity against human tumor Molt-4 cell line up to 72 hrs at concentration of 5 ug/ml; Inactive
[2] = Tested for cell count against human tumor MT-2 T-lymphoid cells for antiproliferative activity; Inactive
MT2 [3] = test: Tested for antiproliferative activity against human tumor MT-2 T-lymphoid cells up to 72 hrs at concentration of 2.5 ug/ml; Inactive
[4] = (§1) Tested for antiproliferative activity against human tumor U937 cell line up to 72 hrs at concentration of 10 ug/ml; Inactive
[5] = Tested for antiproliferative activity against human tumor U937 cell line up to 72 hrs at concentration of 2.5 ug/ml; Inactive
MOLT-4 [6] = test: Tested for antiproliferative activity against human tumor Molt-4 cell line up to 72 hrs at concentration of 2.5 ug/ml; Inactive
Daudi [7] = test: Tested for antiproliferative activity against human tumor DAUDI EBV-immortalized B-lymphoid cells up to 72 hrs at concentration of 2.5 ug/ml; Inactive
K562 = test: Tested for cell count against human tumor K562 erythromyeloid stem cells for antiproliferative activity; Inactive
MOLT-4 [8] = test: Tested for antiproliferative activity against human tumor Molt-4 cell line up to 72 hrs at concentration of 10 ug/ml; Inactive
[9] = Tested for cell count against human tumor Molt-4 cell line for antiproliferative activity; Inactive
MOLT-4 [10] = test: Tested for antiproliferative activity against human tumor Molt-4 cell line up to 72 hrs at concentration of 1.25 ug/ml; Inactive
Daudi [11] = test: Tested for antiproliferative activity against human tumor DAUDI EBV-immortalized B-lymphoid cells up to 72 hrs at concentration of 1.25 ug/ml; Inactive
[12] = Tested for cell count against human tumor HL60 myeloid cells for antiproliferative activity; Inactive
MT2 [13] = test: Tested for antiproliferative activity against human tumor MT-2 T-lymphoid cells up to 72 hrs at concentration of 1.25 ug/ml; Inactive
[14] = Tested for cell count against human tumor DAUDI EBV-immortalized B-lymphoid cells for antiproliferative activity; Inactive
MT2 [15] = test: Tested for antiproliferative activity against human tumor MT-2 T-lymphoid cells up to 72 hrs at concentration of 10 ug/ml; Inactive
[16] = (§2) Tested for antiproliferative activity against human tumor U937 cell line up to 72 hrs at concentration of 5 ug/ml; Inactive
[17] = Tested for antiproliferative activity against human tumor U937 cell line up to 72 hrs at concentration of 1.25 ug/ml; Inactive
MT2 [18] = test: Tested for antiproliferative activity against human tumor MT-2 T-lymphoid cells up to 72 hrs at concentration of 5 ug/ml; Inactive
Daudi [19] = test: Tested for antiproliferative activity against human tumor DAUDI EBV-immortalized B-lymphoid cells up to 72 hrs at concentration of 5 ug/ml; Inactive
Daudi [20] = test: Tested for antiproliferative activity against human tumor DAUDI EBV-immortalized B-lymphoid cells up to 72 hrs at concentration of 10 ug/ml; Inactive
HL-60 [21] = test: as §2
Daudi [22] = test: as §1; details: U-937
HL-60 [23] = test: Tested for antiproliferative activity against human tumor HL60 myeloid cells up to 72 hrs at concentration of 10 ug/ml; Inactive

Measured: Activity

CCCC1C(O)[C@@H](CO)O[C@H]1n1ccc(=O)[nH]c1=O (single isomer, unassigned)
not listed: HL-60 [21] | Daudi [22] | HL-60 [23]
inactive: all other assays above

C[C@H]1C[C@@H](CO)O[C@H]1n1ccc(=O)[nH]c1=O
not listed: HL-60 [21] | Daudi [22] | HL-60 [23]
inactive: all other assays above

C=CCC1C(O)[C@@H](CO)O[C@H]1n1ccc(=O)[nH]c1=O (single isomer, unassigned)
not listed: HL-60 [21] | Daudi [22] | HL-60 [23]
inactive: all other assays above

C=CC[C@H]1C[C@@H](CO)OC1n1ccc(=O)[nH]c1=O (some centres not stated)
not listed: Daudi [22] | HL-60 [23]
inactive: all other assays above

CCC[C@H]1C[C@@H](CO)OC1n1ccc(=O)[nH]c1=O (some centres not stated)
not listed: HL-60 [21] | Daudi [22] | HL-60 [23]
inactive: all other assays above

C=CCC1C(O)[C@@H](CO)O[C@H]1n1ccc(N)nc1=O (single isomer, unassigned)
not listed: HL-60 [21] | Daudi [22] | HL-60 [23]
inactive: all other assays above

CC1[C@@H](O)[C@@H](CO)O[C@H]1n1ccc(=O)[nH]c1=O (single isomer, unassigned; 5b)
not listed: HL-60 [21] | Daudi [22] | HL-60 [23]
inactive: all other assays above

CCCC1C(O)[C@@H](CO)O[C@H]1n1ccc(N)nc1=O (single isomer, unassigned)
not listed: HL-60 [21] | Daudi [22] | HL-60 [23]
inactive: all other assays above

C[C@@H]1C[C@@H](CO)O[C@H]1n1ccc(=O)[nH]c1=O
not listed: HL-60 [21] | Daudi [22] | HL-60 [23]
inactive: all other assays above

CC1[C@@H](O)[C@@H](CO)O[C@H]1n1ccc(=O)[nH]c1=O (single isomer, unassigned; 5a)
not listed: [4] | HL-60 [21]
inactive: all other assays above
